system: 3D multicellular tumor spheroids (4T1 cells and M2 macrophages derived from RAW264.7 cells); assay: 3D multicellular tumor spheroids (MCTs) growth; type: cell-based; conditions: single drug 5 μM; combination 2.5 μM plus 2.5 μM; 14 days
Description: 3D multicellular tumor spheroids (MICs), 4T1 cells and M2 macrophages derived from RAW264.7 cells were mixed in the ratio of 7:3 and then seeded into an ultralow-attachment 96 well plate (Corning) at a density of 5,000 cells/well and cultured for 30 h to form the tumor spheroids. These tumor spheroids were separately incubated with 300 μL complete medium supplemented with PTX ([…]), gemcitabine (5 μM), doxorubicin (5 μM), and IPI-549 (5 μM) as well as the combination of IPI-549 and PTX (2.5 μM+[…]), IPI-549 and gemcitabine (2.5 μM+2.5 μM), and IPI-549 and doxorubicin (2.5 μM+2.5 μM) for 14 days. The volumes ([major axis]×[minor axis]^2/2) of the MTCs were monitored every other day using an Olympus IX83 motorized inverted microscope with cellSens Dimension software (Olympus), and images were captured using a CellInsight CX5 High-Content Screening (HCS) Platform (Thermo Fisher) at 4× magnification.

| SMILES | inhibition of 3D MCTs growth |
| --- | --- |
| C[C@H](NC(=O)c1c(N)nn2cccnc12)c1cc2cccc(C#Cc3cnn(C)c3)c2c(=O)n1-c1ccccc1 [IPI-549] | limited inhibition of 3D MCTs growth |
| CC(=O)O[C@H]1C(=O)[C@@]2(C)[C@H]([C@H](OC(=O)c3ccccc3)[C@]3(O)C[C@H](OC(=O)[C@H](O)[C@@H](NC(=O)c4ccccc4)c4ccccc4)C(C)=C1C3(C)C)[C@]1(OC(C)=O)CO[C@@H]1C[C@@H]2O [PTX, paclitaxel] | limited inhibition of 3D MCTs growth |
| COc1cccc2c1C(=O)c1c(O)c3c(c(O)c1C2=O)C[C@@](O)(C(=O)CO)C[C@@H]3O[C@H]1C[C@H](N)[C@H](O)[C@H](C)O1 [doxorubicin] | limited inhibition of 3D MCTs growth |
| Nc1ccn([C@@H]2O[C@H](CO)[C@@H](O)C2(F)F)c(=O)n1 [gemcitabine] | limited inhibition of 3D MCTs growth |

Reference: patent publication US20240226104A1, “PI3K INHIBITORS, NANOFORMULATIONS, AND USES THEREOF” (THE REGENTS OF THE UNIVERSITY OF MICHIGAN, priority 2021, published 2024)
